Test results: patent US20100009967A1, “SOLID DOSAGE FORMULATIONS OF T[…]” (priority 2008, published 2010)

Assays:
[1] = 25° C./75% relative humidity
CGRP [2] = settings: clinical trials, Olesen et al. 2004; cited from earlier work
CGRP [3] = settings: control group, Petersen et al. 2005; cited from earlier work

Molecule | Water content [1] [%] | efficacy in treating acute attacks of migraine (CGRP [2]) | prevention of headache induced by CGRP infusion (CGRP [3])
O=C(N[C@@H]1CC[C@@H](c2cccc(F)c2F)CN(CC(F)(F)F)C1=O)N1CCC(n2c(=O)[nH]c3ncccc32)CC1 [spray-dried amorphous form] | 18 | – | –
BIBN4096BS | – | effective in treating acute attacks of migraine | able to prevent headache induced by CGRP infusion
